Here are results for one molecule from article PMC4519859, “Synthesis and Biological Evaluation of Novel Dehydroabietic Acid Derivatives Conjugated with Acyl-Thiourea Peptide Moiety as Antitumor Agents” (International Journal of Molecular Sciences, 2015).

Structures are written as SMILES.

For orientation: IC50 means the concentration needed to halve the response being measured.

The subject of assay [1] is MGC-803. As to the kind of experiment: MTT cytotoxicity assay, MGC-803. It counts as cell-based. The conditions noted are these: Homo sapiens, 48 h, mean ± SD, three independent experiments. As for the experimental part: (§1) The in vitro cytotoxic potency of DHAA acyl-thiourea derivatives 8a–8o and 9a–9o were evaluated by 3-(4,5-dimethylthiazol-2-yl)-2,5-diphenyltetrazolium bromide (MTT) assay against HeLa, SK-OV-3 and MGC-803 tumor cell lines, with 5-FU as the positive control.
(§2) General procedure for cytotoxic evaluation in vitro: HeLa, HepG2, SK-OV-3 and MGC-803 cells were seeded into 96-well microculture plates and allowed to adhere for 24 h, respectively. After cells were exposed to compounds at concentrations from 100 to 0.01 μM for 48 h, medium was aspirated and replenished with complete medium. IC50 was evaluated by MTT tetrazolium dye assay. Each experiment was performed three times; Statistical analysis: All statistical analysis was performed with SPSS Version 10 (SPSS, Chicago, IL, USA). Data was analyzed by one-way ANOVA. Mean separations were performed using the least significant difference method. Each experiment was replicated thrice, and all experiments yielded similar results. Measurements from all the replicates were combined, and treatment effects were analyzed.
On the technique in general: Tetrazolium dyes change colour on reduction, which living cells bring about.

The subject of assay [2] is HL-7702. As to the kind of experiment: MTT cytotoxicity assay, HL-7702 normal cells. The conditions noted are these: L02, 48 h, normal human cells, mean ± SD, three independent experiments. It is filed as cell-based. How it is done:
[The source words this procedure for another cell line and reports this cell line under the same test.] as §1, §2

Assay [3] relates to HeLa cells. As to the kind of experiment: Annexin V/PI apoptosis flow cytometry. It counts as cell-based, human. The conditions noted are these: 12 h, control 1.521%. As for the experimental part:
Annexin V/PI staining was performed to distinguish apoptotic and necrotic cell deaths. The apoptosis ratios induced by compound 9n in HeLa cells were quantitatively determined by flow cytometry (Figure 5). […] Apoptosis ratios (including the early and late apoptosis ratios) for compound 9n were obtained after 12 h of treatment at the concentration of 10 and 15 μM. The apoptosis of HeLa cells treated with target compound 9n increased gradually in a concentration manner. […] The results illustrated that target compound 9n suppressed cell proliferation by inducing apoptosis.
General procedure apoptosis ratios: Prepared HeLa cells (1 × 10^6 cells/mL) were washed twice with cold PBS and then re-suspended gently in 500 μL of binding buffer. Thereafter, cells were stained in 5 μL of Annexin V-FITC and shaken well. Finally, the cells were mixed with 5 μL of PI, incubated for 20 min in the dark and subsequently analyzed using FACSCalibur (Becton Dickinson, Franklin Lakes, NJ, USA).
A general note: In flow cytometry, cells or beads pass a laser one at a time.

For assay [4], the system named is HeLa cells. As to the kind of experiment: Cell cycle distribution by PI flow cytometry. It counts as cell-based, human. Particulars: 10, 15 μM, 48 h. As for the experimental part:
Many anticancer drugs interact with cells leading to cell growth arrest. To determine the possible role of cell cycle arrest in DHAA derivative induced growth inhibition, HeLa cells were treated with different concentrations of compound 9n. Cell cycle distribution was investigated by flow cytometric analysis after staining of the DNA with propidium iodide (PI).
General procedure cell cycle: HeLa cells were maintained in Dulbecco’s modified Eagle’s medium with 10% fetal calf serum in 5% CO2 at 37 °C. Cells were harvested by trypsinization and rinsed with PBS. After centrifugation, the pellet (10^5–10^6 cells) was suspended in 1 mL of PBS and kept on ice for 5 min. The cell suspension was then fixed by the drop-wise addition of 9 mL precooled (4 °C) 75% ethanol with violent shaking. Fixed samples were kept at 4 °C until use. For staining, cells were centrifuged, resuspended in PBS, digested with 500 μL of RNase A (250 mg/mL), and treated with 25 μL of propidium iodide (PI) (0.15 mM), then incubated for 30 min at 4 °C. PI-positive cells were counted with a FACScan Fluorescence-activated cell sorter (FACS). The population of cells in each cell-cycle phase was determined using Cell Modi FIT software (Becton Dickinson).

The test system of assay [5] is HeLa cells. Description: ROS generation assay (DCF-DA). Particulars: 10, 15 μM, 12 h. It counts as cell-based, human. From the text: (§3) Mitochondria have also been implicated as a source of ROS during apoptosis. […] We herein studied whether the loss of mitochondrial transmembrane potential resulting in the generation of ROS measured as described in our previous papers , using the fluorescent probe 2,7-dichlorofluorescein diacetate (DCF-DA) determined by fluorescence microscopy. […] Calcium has long been recognized as a significant participant in cell apoptosis. Therefore, we investigated whether compound 9n inducing cell death was involved in the production of Ca^2+. To investigate the effect of compound 9n on calcium release, HeLa cells treated with compound 9n at 10 μM for 24 h were loaded with the Ca^2+ indicator Fluo-3-acetoxymethyl-ester (Fluo-3/AM, 5 µM; Beyotime, Jiangsu, China).

For assay [6], the system named is HeLa cells. As to the kind of experiment: Intracellular Ca2+ release (Fluo-3/AM). It is filed as cell-based, human. Particulars: 10 μM, 24 h.
From the text: as §3

For assay [7], the system named is caspase-3. As to the kind of experiment: Caspase-3 activation assay. It counts as cell-based, human. The conditions noted are these: HeLa, versus control, 3 to 24 h. From the text:
It is well known that an increase of intracellular ROS can lead to apoptosis. […] Caspases are a family of cysteinyl aspartate specific proteases involved in apoptosis and are dichotomized to groups of initiators (caspases 8, 9 and 10) and executioners (caspases 3, 6 and 7). Caspase-3 is able to directly degrade multiple substrates including structural and regulatory proteins. Some small molecules have been developed to be selective activators of Caspase-3 [30]. Thus, we investigated whether caspase-3 was activated when HeLa cells were exposed to compound 9n.

Regarding `CC(C)c1ccc2c(c1)CCC1[C@](C)(C(=O)NC(=S)N[C@H](Cc3ccccc3)C(=O)Nc3ccccn3)CCC[C@]21C` (stereo partly drawn) [Compound 9n, (1R,4aS)-7-Isopropyl-1,4a-dimethyl-N-(((R)-1-oxo-3-phenyl-1-(pyridin-2-ylamino)propan-2-yl)carbamothioyl)-1,2,3,4,4a,9,10,10a-octahydrophenanthrene-1-carboxamide], the half-maximal inhibitory concentration (IC50) stood at 16.9 ± 1.56 µM in assay [1] and 39.6 ± 1.47 µM in assay [2]. The “apoptosis ratio (early and late)” value in assay [3] (10 μM) worked out at 21.11%; in assay [3] (15 μM), 42.75%. Besides, the cell cycle arrest result in assay [4] is “mainly arrested HeLa cells in the S stage”. The ROS level entry in assay [5] is given as “induced an increase of the ROS level”. Further, the “intracellular Ca2+ release” value in assay [6] is “stronger green fluorescence”. Moreover, the caspase-3 activity result in assay [7] was “significant increase in the activity of caspase-3”.
